Measured values reported in PMC5433425 (PeerJ, 2017).

Test system: E. coli AG100tet
Test: EtBr efflux by real-time fluorometry
Conditions: 80 µM
Description: Control tubes with only cells and cells with and without 0.4% glucose were included. The fluorescence was measured in a Rotor-Gene 3000 and the data was acquired every 30 s for 30 min at 37 °C. The efflux activity was quantified by comparing the fluorescence data obtained under conditions that promote efflux (presence of glucose and absence of efflux inhibitor) with the data from the control in which the bacteria are under conditions of no efflux (presence of an inhibitor and no energy source).

## CCCOc1ccc(-c2cc(OCCN3CCNCC3)c3ccccc3n2)cc1 [PQQ4R, 4-(2-(piperazin-1-yl)ethoxy)-2-(4-propoxyphenyl) quinolone]
Cycle 1, + glucose
  Fluorescence raw data, Channel Cycling A.530/585hp: 3.509
Cycle 1, without glucose
  Fluorescence raw data, Channel Cycling A.530/585hp: 3.29
Cycle 2, + glucose
  Fluorescence raw data, Channel Cycling A.530/585hp: 3.253
Cycle 2, without glucose
  Fluorescence raw data, Channel Cycling A.530/585hp: 3.046
Cycle 3, + glucose
  Fluorescence raw data, Channel Cycling A.530/585hp: 3.181
Cycle 3, without glucose
  Fluorescence raw data, Channel Cycling A.530/585hp: 3.057
Cycle 4, without glucose
  Fluorescence raw data, Channel Cycling A.530/585hp: 3.005
Cycle 5, without glucose
  Fluorescence raw data, Channel Cycling A.530/585hp: 2.971
Cycle 6, without glucose
  Fluorescence raw data, Channel Cycling A.530/585hp: 3.106
Cycle 7, without glucose
  Fluorescence raw data, Channel Cycling A.530/585hp: 3.154
Cycle 8, without glucose
  Fluorescence raw data, Channel Cycling A.530/585hp: 3.202
Cycle 9, + glucose
  Fluorescence raw data, Channel Cycling A.530/585hp: 3.419
Cycle 9, without glucose
  Fluorescence raw data, Channel Cycling A.530/585hp: 3.159
Cycle 10, + glucose
  Fluorescence raw data, Channel Cycling A.530/585hp: 3.524
Cycle 10, without glucose
  Fluorescence raw data, Channel Cycling A.530/585hp: 3.043
Cycle 11, + glucose
  Fluorescence raw data, Channel Cycling A.530/585hp: 3.644
Cycle 11, without glucose
  Fluorescence raw data, Channel Cycling A.530/585hp: 3.142
Cycle 12, + glucose
  Fluorescence raw data, Channel Cycling A.530/585hp: 3.857
Cycle 12, without glucose
  Fluorescence raw data, Channel Cycling A.530/585hp: 3.158
Cycle 13, + glucose
  Fluorescence raw data, Channel Cycling A.530/585hp: 3.873
Cycle 13, without glucose
  Fluorescence raw data, Channel Cycling A.530/585hp: 3.143
Cycle 14, + glucose
  Fluorescence raw data, Channel Cycling A.530/585hp: 3.954
Cycle 14, without glucose
  Fluorescence raw data, Channel Cycling A.530/585hp: 3.212
Cycle 15, + glucose
  Fluorescence raw data, Channel Cycling A.530/585hp: 4.044
Cycle 15, without glucose
  Fluorescence raw data, Channel Cycling A.530/585hp: 3.129
Cycle 16, + glucose
  Fluorescence raw data, Channel Cycling A.530/585hp: 4.17
Cycle 16, without glucose
  Fluorescence raw data, Channel Cycling A.530/585hp: 3.186
Cycle 17, + glucose
  Fluorescence raw data, Channel Cycling A.530/585hp: 4.316
Cycle 17, without glucose
  Fluorescence raw data, Channel Cycling A.530/585hp: 3.1931
Cycle 18, + glucose
  Fluorescence raw data, Channel Cycling A.530/585hp: 4.457
Cycle 18, without glucose
  Fluorescence raw data, Channel Cycling A.530/585hp: 3.175
Cycle 19, + glucose
  Fluorescence raw data, Channel Cycling A.530/585hp: 4.5
Cycle 19, without glucose
  Fluorescence raw data, Channel Cycling A.530/585hp: 3.177
Cycle 20, + glucose
  Fluorescence raw data, Channel Cycling A.530/585hp: 4.55
Cycle 20, without glucose
  Fluorescence raw data, Channel Cycling A.530/585hp: 3.2463
Cycle 21, + glucose
  Fluorescence raw data, Channel Cycling A.530/585hp: 4.567
Cycle 21, without glucose
  Fluorescence raw data, Channel Cycling A.530/585hp: 3.257
Cycle 22, + glucose
  Fluorescence raw data, Channel Cycling A.530/585hp: 4.692
Cycle 22, without glucose
  Fluorescence raw data, Channel Cycling A.530/585hp: 3.214
Cycle 23, + glucose
  Fluorescence raw data, Channel Cycling A.530/585hp: 4.73
Cycle 23, without glucose
  Fluorescence raw data, Channel Cycling A.530/585hp: 3.261
Cycle 24, + glucose
  Fluorescence raw data, Channel Cycling A.530/585hp: 4.823
Cycle 24, without glucose
  Fluorescence raw data, Channel Cycling A.530/585hp: 3.277
Cycle 25, + glucose
  Fluorescence raw data, Channel Cycling A.530/585hp: 4.864
Cycle 25, without glucose
  Fluorescence raw data, Channel Cycling A.530/585hp: 3.306
Cycle 26, + glucose
  Fluorescence raw data, Channel Cycling A.530/585hp: 4.922
Cycle 26, without glucose
  Fluorescence raw data, Channel Cycling A.530/585hp: 3.351
Cycle 27, + glucose
  Fluorescence raw data, Channel Cycling A.530/585hp: 4.884
Cycle 27, without glucose
  Fluorescence raw data, Channel Cycling A.530/585hp: 3.344
Cycle 28, + glucose
  Fluorescence raw data, Channel Cycling A.530/585hp: 5.012
Cycle 28, without glucose
  Fluorescence raw data, Channel Cycling A.530/585hp: 3.341
Cycle 29, + glucose
  Fluorescence raw data, Channel Cycling A.530/585hp: 5.042
Cycle 29, without glucose
  Fluorescence raw data, Channel Cycling A.530/585hp: 3.312
Cycle 30, + glucose
  Fluorescence raw data, Channel Cycling A.530/585hp: 5.087
Cycle 30, without glucose
  Fluorescence raw data, Channel Cycling A.530/585hp: 3.355
Cycle 31, + glucose
  Fluorescence raw data, Channel Cycling A.530/585hp: 5.094
Cycle 31, without glucose
  Fluorescence raw data, Channel Cycling A.530/585hp: 3.321
Cycle 32, + glucose
  Fluorescence raw data, Channel Cycling A.530/585hp: 5.074
Cycle 32, without glucose
  Fluorescence raw data, Channel Cycling A.530/585hp: 3.301
Cycle 33, + glucose
  Fluorescence raw data, Channel Cycling A.530/585hp: 5.085
Cycle 33, without glucose
  Fluorescence raw data, Channel Cycling A.530/585hp: 3.3487
Cycle 34, + glucose
  Fluorescence raw data, Channel Cycling A.530/585hp: 5.136
Cycle 34, without glucose
  Fluorescence raw data, Channel Cycling A.530/585hp: 3.377
Cycle 35, + glucose
  Fluorescence raw data, Channel Cycling A.530/585hp: 5.101
Cycle 35, without glucose
  Fluorescence raw data, Channel Cycling A.530/585hp: 3.39
Cycle 36, + glucose
  Fluorescence raw data, Channel Cycling A.530/585hp: 5.167
Cycle 36, without glucose
  Fluorescence raw data, Channel Cycling A.530/585hp: 3.3989
Cycle 37, + glucose
  Fluorescence raw data, Channel Cycling A.530/585hp: 5.0249
Cycle 37, without glucose
  Fluorescence raw data, Channel Cycling A.530/585hp: 3.336
Cycle 38, + glucose
  Fluorescence raw data, Channel Cycling A.530/585hp: 5.139
Cycle 38, without glucose
  Fluorescence raw data, Channel Cycling A.530/585hp: 3.322
Cycle 39, + glucose
  Fluorescence raw data, Channel Cycling A.530/585hp: 5.07
Cycle 39, without glucose
  Fluorescence raw data, Channel Cycling A.530/585hp: 3.367
Cycle 40, + glucose
  Fluorescence raw data, Channel Cycling A.530/585hp: 5.071
Cycle 40, without glucose
  Fluorescence raw data, Channel Cycling A.530/585hp: 3.292
